Data set [1] has as its system breast cancer MCF-7 cells. As to the kind of experiment: Intrinsic activity of prodrug and hydroxylated metabolite in breast cancer MCF-7 cells. It is filed as cell-based. Conditions: Homo sapiens, MCF7; prodrug versus hydroxylated metabolite.
The test system of another data set is K562. Conditions: antitumour activity; cited from earlier work.
A further data set relates to TCDD-induced MCF-7 cells. As to the kind of experiment: TCDD-induced MCF-7 cell line cytotoxicity assay (MTT). The settings on record: for Tumor Selectivity Differential Factor: IC50 MCF-7 cells / IC50 TCDD-induced MCF-7 cells, fold more toxic to "tumour" cells than to "normal" cells; for IC50: read-out: Cytotoxicity TCDD-induced MCF-7 Cells IC50, 10 nM TCDD for 24 hours, then 96 hours with compound, MTT.

Data set [2] is described as follows: MCF-7 cell line (non-induced) cytotoxicity assay (MTT). It is filed as cell-based. The settings on record: human, MCF-7 breast tumour cells, non-induced (no TCDD), non-induced MCF-7 cells.
In the next data set the test system is MDA-468 (Breast Tumor). As to the kind of experiment: MDA-468 tumour cell line cytotoxicity assay. Conditions: for Tumor Selectivity Differential Factor: IC50 MCF-10A / IC50 MDA-468, fold more toxic to cancer cells than to normal cells.
For the next data set, the system named is MCF-10A (Normal Breast). As to the kind of experiment: MCF-10A normal cell line cytotoxicity assay. It is filed as cell-based, human. The settings on record: Homo sapiens, MCF-10A, read-out: IC50 against the normal cell line.
Data set [3] can be described thus: MCF-10A normal cell line cytotoxicity assay. It is filed as cell-based, human. The settings on record: human, MCF-10A normal breast cells; without TCDD.
Setting [4] is: read-out: Cytotoxicity MDA-468 (Breast Tumor) IC50, without TCDD.

Where two headings read alike, the source gives them in different places.

Protocol for MDA-468 (Breast Tumor): MDA-468 Tumour Cell Line Versus MCF-10A Normal Cell Line Assay
This cell culture based assay is performed using the two cell lines MDA-468 and MCF-10A. The MDA-468 cell line is an advanced breast cancer cell line, whilst the MCF-10A cell line is a normal breast cell line.
The tumour selectivity differential factor(TSDF) is calculated by dividing the IC50 obtained from the MCF-10A data by the IC50 obtained from the MDA-468 data.
Protocol for TCDD-induced MCF-7 cells: TCDD-Induced MCF-7 Cell Line Versus MCF-7 Cell Line Cytotoxicity Assay
1×10^3 cells were plated out in 100 μl medium per well of 96-well flat-bottomed plates (Fisher). […] The medium was then carefully aspirated and 100 μl fresh medium added. […] 50 μl MTT (Thiazol blue, Sigma) at 2 mg/ml in Dulbecco's phosphate buffered saline-A, was then added to each well for 3 hours: All medium was aspirated, then the formazan product generated by viable cells was solubilized with 150 μl DMSO. Plates were vortexed and the absorbance at 540 nm determined using a plate reader. […] All determinations were carried out in at least triplicate.

For `COc1cc(OC)cc(C(=O)/C=C/c2ccc(OC)c(O)c2)c1` [(E)-1-(3-Hydroxy-4-methoxyphenyl)-3-(3,5-dimethoxyphenyl) prop-1-en-3-one], the IC50 in data set [1] worked out at 0.65 nM.
Still for that read-out and setting: in the case of `COc1ccc(/C=C/C(=O)c2cc(OC)cc(OC)c2)cc1` [(E)-1-(4-methoxyphenyl)-3-(3,5-dimethoxyphenyl)prop-1-en-3-one] it was 690 nM.
Take `CC(=O)/C=C/c1ccc(O)cc1` [(E)-1-(4′-hydroxyphenyl)but-1-en-3-one]: the IC50 in the data set on K562 was 60000 nM.
On to `COc1cc(C(=O)/C=C/c2ccc3c(c2)OCO3)cc(OC)c1OC` [DMU-135, (E)-1-(3,4-Methylenedioxyphenyl)-3-(3,4,5-trimethoxyphenyl)prop-1-en-3-one], for which the melting point was 135 °C. In addition, the “Tumor Selectivity Differential Factor” value in the data set on TCDD-induced MCF-7 cells is on record as 65. In data set [2], 920 nM corresponded to half-maximal inhibition (IC50 at 96 h). Moreover, the “Tumor Selectivity Differential Factor” value in the data set with MDA-468 (Breast Tumor) was 120. In addition, the 50% inhibitory concentration (IC50) in the data set with MDA-468 (Breast Tumor) (read-out: IC50 against the advanced tumour cell line, MDA-468, FIG. 2) turned out to be 20 nM. Further, in the data set on MCF-10A (Normal Breast), the half-maximal inhibitory concentration (IC50) was determined as 2300 nM.
Regarding `COc1cc(OC)cc(C(=O)/C=C/c2ccc3c(c2)OCO3)c1` [DMU-403, (E)-1-(3,4-methylenedioxyphenyl)-3-(3,5-dimethoxyphenyl)prop-1-en-3-one], in the data set with TCDD-induced MCF-7 cells, the “Tumor Selectivity Differential Factor” value turned out to be 6 and the IC50 was 570 nM. In data set [2], this compound had an IC50 at 96 h of 3500 nM.
Regarding `COc1ccc(C(=O)/C=C/c2ccc3c(c2)OCO3)c(OC)c1` [DMU-407, (E)-1-(3,4-methylenedioxyphenyl)-3-(2,4-dimethoxyphenyl)prop-1-en-3-one], the melting point is 137 °C. In addition, in the data set with TCDD-induced MCF-7 cells, the “Tumor Selectivity Differential Factor” value is 3 and the IC50 amounted to 2700 nM. The same compound registered a concentration for half-maximal inhibition (IC50) at 96 h in data set [2] of 7000 nM.
In the case of `COc1ccc(C(=O)/C=C/c2ccc3c(c2)OCO3)c(OC)c1OC` [DMU-419, (E)-1-(3,4-methylenedioxyphenyl)-3-(2,3,4-trimethoxyphenyl)prop-1-en-3-one], in the data set on TCDD-induced MCF-7 cells, the “Tumor Selectivity Differential Factor” value is reported as 3 and the 50% inhibitory concentration (IC50) stood at 840 nM. In data set [2], this compound returned an IC50 at 96 h of 2800 nM.
`COc1ccc(OC)c(C(=O)/C=C/c2ccc3c(c2)OCO3)c1` [DMU-423, (E)-1-(3,4-methylenedioxyphenyl)-3-(2,5-dimethoxyphenyl)prop-1-en-3-one] yielded a melting point of 101 °C. Moreover, in the data set on TCDD-induced MCF-7 cells, the “Tumor Selectivity Differential Factor” value is 13 and the 50% inhibitory concentration (IC50) was determined as 260 nM. In data set [2], this compound registered an IC50 at 96 h of 3500 nM.
With `COc1cccc2c1C(=O)c1c(O)c3c(c(O)c1C2=O)C[C@@](O)(C(=O)CO)C[C@@H]3O[C@H]1C[C@H](N)[C@H](O)[C@H](C)O1` [Doxorubicin, doxorubicin], the “Tumor Selectivity Differential Factor” value with MDA-468 (Breast Tumor) amounted to 0.1. The “fold more toxic to normal cells than to cancer cells” value in the data set on MDA-468 (Breast Tumor) (MCF-10A versus MDA-468) was 10 fold. Also, in the data set on MDA-468 (Breast Tumor) (setting [4]), the IC50 stood at 3 nM. In data set [3], this compound yielded an IC50 at 96 h of 0.3 nM.
With `CN(Cc1cnc2nc(N)nc(N)c2n1)c1ccc(C(=O)N[C@@H](CCC(=O)O)C(=O)O)cc1` [Methotrexate, methotrexate], the “Tumor Selectivity Differential Factor” value in the data set with MDA-468 (Breast Tumor) is 1.5. Further, in the data set with MDA-468 (Breast Tumor) (setting [4]), the IC50 worked out at 40 nM. 60 nM corresponded to half-maximal inhibition in data set [3] (IC50 at 96 h).
Regarding `CC/C(=C(\c1ccccc1)c1ccc(OCCN(C)C)cc1)c1ccccc1` [Tamoxifen, tamoxifen], the “Tumor Selectivity Differential Factor” value in the data set on MDA-468 (Breast Tumor) is 1.6. For the same compound, in the data set on MDA-468 (Breast Tumor) (setting [4]), the IC50 amounted to 4000 nM. The compound also gave a half-inhibitory concentration (IC50) at 96 h in data set [3] of 6300 nM.

By IC50 is commonly meant the midpoint of a concentration-inhibition curve. The melting point is the temperature, or range, at which the solid turns liquid.
